In patent US7585843B2, “Treatment of demyelinating autoimmune disease with modified ordered peptides” (Bayhill Therapeutics, Inc., priority 2003, dated 2009):
“Also recorded” adds a separate entry of the source. Like-named read-outs stand apart in the source and are kept apart here. Non-standard residues stand in square brackets, D forms with d. No end group written: not given here.

What was measured:
EAE in Lewis rats [1] = assay: EAE treatment in Lewis rats, single dose at disease onset (FIG. 1); format: in vivo, rat; details: MBPp85-99-induced EAE, single intraperitoneal dose 0.5 mg in PBS at disease onset (day 10)
Description: FIG. 1 is a graph showing the prevention of EAE in rats treated with therapeutic ordered peptides. […] Animals were injected with an emulsion of 0.1 mg of MBPp85-99 in complete Freund's adjuvant for EAE induction. Ten days later, when the clinical manifestations of disease became apparent, a single intra-peritoneal dose of MBP therapeutic ordered peptide {SEQ ID NO:4} EYYKEYYKEYYK (squares), {SEQ ID NO:5} KYYKYYKYYKYY (triangles), or PBS (circles)was administered. Results are expressed as mean disease score of groups of six animals.
Animals. Female Lewis rats (6-8 weeks old), were purchased from Harlan Sprague Dawley (Indianapolis, Ind.)
(§1) EAE induction. Synthetic peptide MBPp85-99 was dissolved in PBS to a concentration of 2 mg/ml and emulsified with and equal volume of Incomplete Freund's Adjuvant (IFA), supplemented with 4 mg/ml heat-killed Mycobacterium tuberculosis H37Ra (Difco Laboratories, Detroit, Mich.). Rats were injected subcutaneously with 0.1 ml of the peptide emulsion. Experimental animals were scored as follows: 0, no clinical disease; 1, tail weakness or paralysis; 2, hind limb weakness; 3, hind limb paralysis; 4, forelimb weakness or paralysis; 5, moribund or dead animal.
EAE treatment. Rats previously immunized with MBPp85-99 for EAE induction were scored from day eight after peptide injection. […]

EAE in mice = assay: Relapse rates in mice with ongoing EAE induced with PLPp139-151 (FIG. 2); format: in vivo; details: PLPp139-151-induced EAE; treated days 17, 29, 36; i.v., i.p. or s.c.; 0.5 or 0.05 mg per mouse; in mannitol
Description: FIG. 2 is a graph depicting the reduction in relapse rates in mice with EAE treated with ordered peptides. Animals were induced for EAE with an emulsion of 0.1 mg of PLPp139-151 in complete Freund's adjuvant (day 0). Mice were randomized into equal groups at the peak of disease and were treated at days 17, 29, and 36 after EAE induction with intravenous, intra-peritoneal or subcutaneous administration of EYYKEYYKEYYK (MBP therapeutic ordered peptide) or Copaxone at two different dosages, 0.5 mg per mouse or 0.05 mg per mouse. Both the MBP therapeutic ordered peptide and Copaxone were dissolved in mannitol.
Injection of ordered peptides containing TCR-MHC binding motifs reverse the development of EAE. In order to test the potential of the predicted sequences to revert the development of ongoing EAE we delivered a single dose of a PBS solution containing 0.5 mg of peptide in 0.25 ml. […] In addition, ordered peptide treatment was administered in a mouse model of ongoing-EAE (FIG. 2) at days 17, 29, and 36 after EAE induction with intravenous, intra-peritoneal or subcutaneous administration of EYYKEYYKEYYK (therapeutic ordered peptide) or Copaxone at two different dosages, 0.5 mg per mouse or 0.05 mg per mouse. Both the therapeutic ordered peptide and Copaxone were dissolved in mannitol.

rat MHC class II = assay: Blocking of native peptide binding to MHC by FACS (FIG. 3), rat; details: biotinylated peptide on spleen APCs
Description: (§2) The ability of MBP therapeutic ordered peptide EYYKEYYKEYYK, substituted MBP therapeutic ordered peptide D-Ala-EYYKEYYKEYYK-amide, or Copaxone to block the binding of the native peptide to either a mouse or rat MHC was measured by FACS analysis.
(§3) Peptide binding to class II molecules was measured as follows. Briefly, APCs (antigen presenting cells) were purified from spleen cells by negative selection using magnetic beads (Dynal, Oslo, Norway) conjugated with antibodies specific for T cells (CD52), macrophages (CD45R), and NK cells (NKR-P1A) (Pharmingen, San Diego, Calif.). After selection, cells were plated at a concentration of 0.5×10^6 cells per well in flat bottom 96 well microtiter plates (Costar, Corning, N.Y.). Therapeutic ordered peptides were used as inhibitors are added to the wells at different concentrations (ranging from 0.01 to 0.24 mM) in a volume of 0.05 ml. After an hour of incubation at 37° C., 0.01 mM of biotinylated MBP, MOG, or PLP peptide was added. After four more hours of incubation, cells were harvested and binding of PE-Avidin to the cell surface was analyzed by FACS (Becton Dickinson, San Jose, Calif.). To determine the IC50 value of the therapeutic ordered peptide, for example EYYK, a linear regression curve was calculated using data points from 0.01 mM to […].

mouse MHC class II = assay: Blocking of native peptide binding to MHC by FACS (FIG. 3), mouse; details: biotinylated peptide on spleen APCs
Description: as §2, §3

[2] = system: PLPp139-151 specific T cell line; assay: T cell proliferation assay (FIG. 4); format: cell-based
Description: FIG. 4 is a graph showing the blocking by the therapeutic ordered peptide of T cell proliferation. The ability of MBP therapeutic ordered peptide (EYYKEYYKEYYK), substituted MBP therapeutic ordered peptide (D-Ala-EYYKEYYKEYYK-amide), or Copaxone to block the proliferation of a PLPp139-151 specific T cell line was measured in a proliferation assay.
The ability of therapeutic ordered peptide EYYKEYYKEYYK, modified therapeutic ordered peptide D-Ala-EYYKEYYKEYYK-amide, or Copaxone to block the proliferation of a PLPp139-151 specific T cell line was measured in a proliferation assay.

EAE in Lewis rats [3] = assay: Blocking of EAE induction in Lewis rats, peptide mixed into encephalitogenic emulsion (FIG. 5); format: in vivo, rat; details: 0.5 mg mixed into MBPp85-99/CFA emulsion, 12-13 animals
Description: FIG. 5 is a graph showing the blocking of induction of EAE by the substituted D-Ala form of the therapeutic ordered peptide. Lewis rats were injected with an emulsion of 0.1 mg of MBPp85-99 in complete Freund's adjuvant for EAE induction. Either of 0.5 mg MBP therapeutic ordered peptide EYYKEYYKEYYK, substituted MBP therapeutic ordered peptide D-Ala-EYYKEYYKEYYK-amide, or Copaxone was mixed into the encephalitogenic emulsion. Results are expressed as mean disease score of 12-13 animals.
as §1
The ability of therapeutic ordered peptide EYYKEYYKEYYK, modified therapeutic ordered peptide D-Ala-EYYKEYYKEYYK-amide, or Copaxone to treat a rat model of EAE was tested. A single 0.5 mg dose of each of these peptides was administered along with the encephalitogen (MBP 85-99 peptide in CFA) as an emulsion.

[4] = system: T cell lines from immunized mice; assay: Cytokine production by T cell lines from immunized mice (FIG. 6); format: cell-based; details: T cell lines from mice immunized with the antigen
Excerpt: OVA is known to cause an induction of Th1 type of T cells after immunization.
One of the mechanisms proposed for the efficacy of Copaxone in MS is the induction of Th2 type of antigen-specific T cells that are beneficial in treating the disease process.
In a similar protocol we immunized mice with D-ala modified ordered peptide, non-modified ordered peptide, and control peptides including Cop1 and ovalbumin (OVA). OVA is known to cause an induction of Th1 type of T cells after immunization.

[5] = system: anti-MBP antibodies affinity-purified from CNS lesions; assay: Inhibition of autoantibody binding to MBP; parameters: species or system human; details: antibodies from CNS lesions of 12 post-mortem MS cases
Excerpt: Previously, we have compared the structural requirements for autoantibody recognition to those of T cell clones reactive to MBP p87-99. Anti-MBP antibodies were affinity-purified from CNS lesions of 12 post-mortem cases studied. The MBP p87-99 peptide was immunodominant in all cases and it inhibited autoantibody binding to MBP by more than 95%. Residues contributing to autoantibody binding were located in a 10-amino acid segment p86-95 ({SEQ ID NO:9} VVHFFKNIVT) that also contained the MHC-T cell receptor contact residues for T cells recognizing MBP in the context of DRB1*1501 and DQB1*0602. In the epitope center, the same residues, {SEQ ID NO:10} VHFFK, were important for T cell binding and MHC recognition. Recently, the crystal structure of HLA-DR2 with MBPp85-99 was solved, confirming the prediction that K91 is the major TCR contact residue, while F90 is a major anchor into the hydrophobic P4 pocket of the MHC molecule.

EYYKEYYKEYYK [MBP therapeutic ordered peptide, motif [EYYK]n with n=3]
EAE development, mean disease score (EAE in Lewis rats [1]): prevents the development of EAE; also recorded: effective in preventing and treating experimental autoimmune encephalomyelitis | relapse rates per mouse (EAE in mice): reduce relapse rates similarly | blocking of binding of native MBP peptide to rat MHC class II (mean fluorescence intensity) (rat MHC class II): comparable amount of inhibition | blocking of binding of native PLP peptide to mouse MHC class II (mean fluorescence intensity) (mouse MHC class II): comparable amount of inhibition

D-Ala-EYYKEYYKEYYK-amide ([dA]EYYKEYYKEYYK-NH2; N-terminus assumed; SMILES C[C@@H](N)C(=O)N[C@@H](CCC(=O)O)C(=O)N[C@@H](Cc1ccc(O)cc1)C(=O)N[C@@H](Cc1ccc(O)cc1)C(=O)N[C@@H](CCCCN)C(=O)N[C@@H](CCC(=O)O)C(=O)N[C@@H](Cc1ccc(O)cc1)C(=O)N[C@@H](Cc1ccc(O)cc1)C(=O)N[C@@H](CCCCN)C(=O)N[C@@H](CCC(=O)O)C(=O)N[C@@H](Cc1ccc(O)cc1)C(=O)N[C@@H](Cc1ccc(O)cc1)C(=O)N[C@@H](CCCCN)C(N)=O) [substituted (modified) MBP therapeutic ordered peptide]
blocking of binding of native MBP peptide to rat MHC class II (mean fluorescence intensity) (rat MHC class II): more effective in blocking either MHC than the non-D-ala form | blocking of binding of native MBP peptide to rat MHC class II (mean fluorescence intensity) (rat MHC class II; listed as D-Ala EYYK): higher affinity of binding to these MHC's than the unmodified EYYK; also recorded: approaches the binding achieved by Copaxone | blocking of binding of native MBP peptide to rat MHC class II (mean fluorescence intensity) (rat MHC class II; listed as D-ala-EYYK): comparable amount of inhibition | blocking of binding of native PLP peptide to mouse MHC class II (mean fluorescence intensity) (mouse MHC class II): more effective in blocking either MHC than the non-D-ala form | blocking of binding of native PLP peptide to mouse MHC class II (mean fluorescence intensity) (mouse MHC class II; listed as D-Ala EYYK): higher affinity of binding to these MHC's than the unmodified EYYK; also recorded: approaches the binding achieved by Copaxone | blocking of binding of native PLP peptide to mouse MHC class II (mean fluorescence intensity) (mouse MHC class II; listed as D-ala-EYYK): comparable amount of inhibition | reduction in T cell proliferation [2]: dose dependent reduction in T cell proliferation; also recorded: exceeds the reduction in T cell proliferation for either the unmodified ordered peptide or for Copaxone | reduction in T cell proliferation ([2]; listed as D-Ala EYYK): dose dependent reduction in T cell proliferation; also recorded: exceeds the reduction in proliferation with either the unmodified ordered peptide or Copaxone | reduction in T cell proliferation ([2]; listed as D-ala EYYK): more effective in blocking T cell proliferation than the unmodified EYYK | blocking of EAE induction, mean disease score (EAE in Lewis rats [3]): more effective in blocking EAE induction than the un-substituted therapeutic ordered peptide; also recorded: superiority of the D-Ala form of the ordered peptide over the non-substituted form; also recorded: nearly reaches the efficacy of Copaxone | IL4 production [4]: increased production of IL4 and IL10 | IL10 production [4]: increased production of IL4 and IL10

OVA: ovalbumin, control known to cause an induction of Th1 type of T cells after immunization [reference compound]
IL4 production [4]: did not cause an increase in these cytokines | IL10 production [4]: did not cause an increase in these cytokines

MBP p87-99: myelin basic protein peptide 87-99, immunodominant epitope (SRPHLIRLFSRDA; UniProt P02686 87-99, looked up, fragment)
inhibition of autoantibody binding to MBP [5]: more than 95%
